Reference: patent US20220017516A1, “LOX INHIBITORS” (THE INSTITUTE OF CANCER RESEARCH: ROYAL CANCER HOSPITAL, priority 2018, published 2022)
Where a chain is given by its changes, count along the chain named. Where two headings read alike, the source gives them in different places.

Columns and labels:
LOXL2 = biological target: T1, LOXL2 (Homo sapiens, UniProt Q9Y4K0); assay: LOX isoform activity assay (ROS Glo), LOXL2; format: biochemical
T1 construct: purchased R&D Systems/Bio-techne
T1 sequence (Q9Y4K0 26-774): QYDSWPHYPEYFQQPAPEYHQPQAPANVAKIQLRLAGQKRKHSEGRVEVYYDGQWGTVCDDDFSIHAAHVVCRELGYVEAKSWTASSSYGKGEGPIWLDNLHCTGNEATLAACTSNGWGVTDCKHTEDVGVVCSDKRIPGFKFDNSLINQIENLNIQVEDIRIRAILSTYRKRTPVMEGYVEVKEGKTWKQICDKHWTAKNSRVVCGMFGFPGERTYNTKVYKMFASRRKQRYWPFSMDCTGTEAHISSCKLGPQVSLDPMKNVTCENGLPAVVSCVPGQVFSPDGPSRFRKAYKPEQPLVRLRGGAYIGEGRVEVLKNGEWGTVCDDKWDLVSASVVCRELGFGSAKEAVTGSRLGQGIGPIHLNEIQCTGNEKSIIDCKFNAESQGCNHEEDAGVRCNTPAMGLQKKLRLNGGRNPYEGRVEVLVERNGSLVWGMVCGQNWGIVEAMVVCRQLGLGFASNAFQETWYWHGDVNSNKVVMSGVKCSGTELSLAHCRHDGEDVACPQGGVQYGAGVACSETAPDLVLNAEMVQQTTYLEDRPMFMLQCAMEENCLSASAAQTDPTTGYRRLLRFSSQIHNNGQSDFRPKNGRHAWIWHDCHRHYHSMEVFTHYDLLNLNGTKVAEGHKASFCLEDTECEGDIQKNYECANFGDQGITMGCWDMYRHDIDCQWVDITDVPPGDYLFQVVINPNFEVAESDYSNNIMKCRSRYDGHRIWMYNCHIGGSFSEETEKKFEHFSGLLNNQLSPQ
Procedure: (§1) LOX was extracted from pig skin by previously described methods (Shackleton and Hulmes, 1990). LOXL2 and LOXL3 were obtained from R&D Systems/Bio-techne. The Promega ROS Glo assay kit (G8821) was used to assess enzyme activity. Overall, test compound was added to either 384 well assay plates (Greiner) using a Labcyte Echo™ Acoustic Handler or to 96 well plates for a final assay concentration of 100, 30, 10, 3, 1, 0.3, 0.1, 0.03, 0.01 and 0.003 μM final assay concentration. Enzymes were diluted according to specific pre-determined activity in assay buffer (100 mM CHES, pH 9, 0.05% (w/v) pluronic F-127, 0.5% (w/v) BSA, 1 mM MgCl2, 1 M urea, 100 mM NaCl) and added to the plate. For LOXL2, the mixture was incubated for 20 min, 1 h or 20 h; for LOX and LOXL3, incubation time was 1 h. Cadaverine and H2O2 substrate were then added to each well (final assay concentration 19.56 mM and 25 μM respectively) and the plates were incubated for 1.5 h (for LOX) or 1 h (for LOXL2 and LOXL3) at room temperature. Finally, luciferin detection reagent was added and plates were incubated for 20 min at room temperature, protected from light. Luminescence was measured using a BMG LABTECH PHERAstar FS reader and resulting IC50 values were calculated using GraphPad Prism software.
In another setting, LOXL2 enzyme was diluted according to specific pre-determined activity in assay buffer (100 mM CHES, pH 9, 0.05% (w/v) pluronic F-127, 0.5% (w/v) BSA, 1 mM MgCl2, 1 M urea, 100 mM NaCl). Overall, 0.5 μl test compound was added to 40 μl assay buffer+LOXL2 at 100, 30, 10, 3, 1, 0.3, 0.1, 0.03, 0.01 and 0.003 μM (final concentration) in a 96-well white polystyrene, flat bottom plates (Fisher) and incubated for the indicated time at room temperature. 10 μl of assay buffer containing 97.8 mM cadaverine and 125 μM H2O2 substrate (final assay concentration 19.56 mM and 25 μM respectively) were added to each well and plates were incubated for 1 h at room temperature. Finally, 50 μl per well luciferin detection reagent was added and plates were incubated for 20 min at room temperature, protected from light. Luminescence was measured with an integration time of 500 ms per well using a SpectaMax M5 plate reader and resulting IC50 values were calculated using GraphPad Prism software.

LOXL3 = biological target: T2, LOXL3 (Homo sapiens, UniProt P58215); assay: LOX isoform activity assay (ROS Glo), LOXL3; format: biochemical; settings: 1 h incubation with enzyme
T2 construct: purchased R&D Systems/Bio-techne
T2 sequence (P58215 26-753): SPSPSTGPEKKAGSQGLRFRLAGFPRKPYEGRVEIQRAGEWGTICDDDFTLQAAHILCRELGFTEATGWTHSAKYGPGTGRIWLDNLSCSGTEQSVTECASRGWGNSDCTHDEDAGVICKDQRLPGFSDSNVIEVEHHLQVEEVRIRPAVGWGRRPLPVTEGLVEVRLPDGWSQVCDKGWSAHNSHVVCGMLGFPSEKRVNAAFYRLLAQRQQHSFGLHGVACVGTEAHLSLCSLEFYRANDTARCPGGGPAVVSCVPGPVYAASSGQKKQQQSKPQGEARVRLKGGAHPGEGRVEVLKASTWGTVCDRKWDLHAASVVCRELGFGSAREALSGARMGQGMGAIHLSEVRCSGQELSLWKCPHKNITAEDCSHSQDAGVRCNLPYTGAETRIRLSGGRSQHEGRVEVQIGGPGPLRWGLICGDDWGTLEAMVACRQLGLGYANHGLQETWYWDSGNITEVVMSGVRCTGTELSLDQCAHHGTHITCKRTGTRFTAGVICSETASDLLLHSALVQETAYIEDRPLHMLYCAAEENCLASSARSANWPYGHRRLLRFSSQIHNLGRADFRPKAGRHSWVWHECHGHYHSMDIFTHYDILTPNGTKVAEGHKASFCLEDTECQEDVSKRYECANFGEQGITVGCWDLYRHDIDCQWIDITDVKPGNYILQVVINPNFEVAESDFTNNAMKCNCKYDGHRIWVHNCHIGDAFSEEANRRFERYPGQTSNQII
Procedure: as §1

LOX [1] = biological target: T3, LOX (Sus scrofa, UniProt P45845); assay: LOX isoform activity assay (ROS Glo), LOX; format: biochemical, pig; settings: 1 h incubation with enzyme
T3 construct: LOX was extracted from pig skin by previously described methods; from tissue; host or cells: pig skin
T3 sequence (P45845 1-249): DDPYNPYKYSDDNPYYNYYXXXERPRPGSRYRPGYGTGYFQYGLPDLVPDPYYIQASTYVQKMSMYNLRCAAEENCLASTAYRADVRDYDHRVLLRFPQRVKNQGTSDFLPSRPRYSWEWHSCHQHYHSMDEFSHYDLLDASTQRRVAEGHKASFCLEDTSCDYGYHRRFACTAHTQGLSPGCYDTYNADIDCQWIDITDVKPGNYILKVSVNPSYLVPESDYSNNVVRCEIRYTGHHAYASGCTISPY
Procedure: as §1

LOX [2] = biological target: T4, LOX (Mus musculus, UniProt P28301); assay: LOX activity in cysts assay (roGFP2 LOX biosensor in MDCK cysts); format: cell-based; settings: LOX, read-out: Cyst LOX (% inhibition) @ 2.5 uM
T4 construct: Full length LOX cDNA was then PCR cloned into pEGFP-N1 (Clonetech), or biosensor vector proGFP2—N1; expressed in transfected cells; host or cells: MDCK cells grown as cysts on Matrigel
T4 sequence (P28301 163-411): T3 sequence (P45845 1-249) with X20D, X21T, X22Y, Y31N, T80S, S142N, N188A, K202Q, S224T, E231D
Procedure: All cell lines used in this study were purchased from American Type Culture Collection (ATCC). Mycoplasma contamination was routinely monitored by PCR. Cells used were not found to be Mycoplasma positive. MDCK cell lines were cultured in Dulbecco's Modified Eagle Medium (DMEM) supplemented with 10% fetal bovine serum (FBS) and 1% Penicillin Streptomycin solution (Pen Strep). For GFP constructs transfection in MDCK cells, lipofectamine 3000 was used according to manufactures protocols. Cells were either selected with G418 (Life Technologies) at 5 mg/ml. All cell culture reagents were purchased from Life Technologies.
To produce MDCK cysts, cells were cultured on Matrigel (Corning) with 2% Matrigel supplemented in DMEM with 10% FBS. Cysts were allowed to form for 10 days before subsequent studies.
Mouse LOX cDNA was purchased from OriGene. Full length LOX cDNA was then PCR cloned into pEGFP-N1 (Clonetech), or biosensor vector proGFP2—N1 (Hanson, 2004) using the following primers, […] (forward primer) and […] (reverse primer). For the insertion into pEGFP-N1 or proGFP2—N1, Nhel and Xhol restriction sites were added to forward and reverse primers accordingly. Mutant LOX constructs were made using QuickChange II site-directed mutagenesis kit (Agilent Technologies) following manufacture's protocol using LOX-GFP as template. To generate, roGFP2 versions of LOX mutant constructs, LOX mutant cDNA was transferred from pEGFP-N1 to proGFP2—N1 using Nhel and Xhol.
All photomicrographs were taken with a Leica TCS SP8 X confocal system. For LOX biosensor imaging, live MDCK cysts were used. The oxidised biosensor was excited using a 405 nm laser, while the reduced biosensor was excited with a 488 nm laser. Emission of the biosensor was recorded at 500 nm-530 nm range using sequential scans. Ratio images were generated following a published protocol {Kardash, 2011 #376}. Note, while the published protocol generates YFP/CFP ratio images, we used it to generate Oxidised/Reduced (roGFP2 ratio) ratio images. The roGFP2 ratio at the basal surface of MDCK cysts was used to indicate LOX inhibition. LOX inhibitors were added 30 min prior to imaging.
For clarity, readout for DMSO treated cysts represents 0% inhibition (no inhibition) and readout for BAPN at 1 mM is used as 100% inhibition (full inhibition).

[3] = 1 hr incubation with enzyme; read-out: LOXL2 IC50 b) 1 hr

SMILES | IC50 (LOXL2; [3]) | IC50 (LOXL3) | IC50 (LOX [1]) | IC50 (LOXL2; 20 hr incubation with enzyme; read-out: LOXL2 IC50 c) 20 hr) | inhibition at 2.5 µM (LOX [2])
NCCS(=O)(=O)C(F)C(=O)N1C[C@@H]2CN(c3c(F)c(F)c(F)c(F)c3F)C[C@@H]2C1 (stereo partly drawn) [Example 20, 2-((2-aminoethyl)-sulfonyl)-2-fluoro-1-(cis-5-(perfluoro-phenyl)hexahydro-pyrrolo[3,4-c]pyrrol-2(1H)-yl)ethan-1-one] | 240 nM | 340 nM | 2400 nM | – | –
NCCS(=O)(=O)C(F)C(=O)N1C[C@@H]2CN(c3ccc(Br)cc3)C[C@@H]2C1 (stereo partly drawn) [Example 19, 2-((2-Aminoethyl)-sulfonyl)-2-fluoro-1-(cis-5-(4-bromo-phenyl)hexahydro-pyrrolo[3,4-c]pyrrol-2(1H)-yl)ethan-1-one] | 150 nM | 220 nM | 660 nM | – | –
NCCS(=O)(=O)C(F)C(=O)N1C[C@@H]2CN(c3ccc(F)cc3)C[C@@H]2C1 (mixture of isomers) [Example 18] | 230 nM | 440 nM | 2300 nM | – | –
CCOc1ccc(N2C[C@H]3CN(C(=O)C(F)S(=O)(=O)CCN)C[C@@H]2C(C)(C)C3)cc1 (stereo partly drawn) [Example 15, 2-((2-aminoethyl)sulfonyl)-1-((1 S,5S)-6-(4-ethoxyphenyl)-9,9-dimethyl-3,6-diazabicyclo[3.2.2]nonan-3-yl)-2-fluoroethan-1-one] | – | – | 2200 nM | 120 nM | 78%
